Reference: article PMC6692548, “Characterization of a phospholipid‐regulated β‐galactosidase from Akkermansia muciniphila involved in mucin degradation” (MicrobiologyOpen, 2019)

T1: Amuc_1686_short (Akkermansia muciniphila, UniProt B2UM60)
T1 construct: gene Amuc_1686; signal peptide removed, last 107 amino acids (C-terminal discoidin domain) deleted; N-terminal Strep-tag (pASK-IBA5), E. coli BL21(DE3); primers start at codons AAPMPF and end in DNGPH-stop
T1 sequence (B2UM60 18-673): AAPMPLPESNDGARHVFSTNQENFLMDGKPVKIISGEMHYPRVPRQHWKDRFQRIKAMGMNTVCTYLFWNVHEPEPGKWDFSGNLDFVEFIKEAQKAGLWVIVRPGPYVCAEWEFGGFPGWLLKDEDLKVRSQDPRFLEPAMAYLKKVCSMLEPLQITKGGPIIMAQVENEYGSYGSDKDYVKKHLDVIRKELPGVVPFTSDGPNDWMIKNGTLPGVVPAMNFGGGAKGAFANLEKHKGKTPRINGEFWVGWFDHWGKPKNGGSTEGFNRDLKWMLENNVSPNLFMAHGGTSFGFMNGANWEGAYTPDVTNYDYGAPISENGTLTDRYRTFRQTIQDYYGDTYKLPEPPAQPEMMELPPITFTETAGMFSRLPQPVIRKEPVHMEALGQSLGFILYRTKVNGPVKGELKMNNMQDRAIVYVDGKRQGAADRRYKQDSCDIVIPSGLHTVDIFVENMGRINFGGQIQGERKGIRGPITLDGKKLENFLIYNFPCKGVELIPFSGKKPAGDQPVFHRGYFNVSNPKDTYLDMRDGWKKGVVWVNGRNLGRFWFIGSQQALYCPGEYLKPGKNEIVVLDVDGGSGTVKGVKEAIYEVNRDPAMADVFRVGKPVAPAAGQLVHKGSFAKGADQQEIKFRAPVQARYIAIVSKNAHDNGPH

T2: Amuc_1686 (Akkermansia muciniphila, UniProt B2UM60)
T2 construct: GH35 beta-galactosidase with C-terminal truncated discoidin (F5/8 type C) domain; signal peptide removed (predicted cleavage between 17 and 18), N-terminal Strep-tag kept (pASK-IBA5), E. coli BL21(DE3); 87 kDa tagged (86 kDa encoded); monomer; primers start at codons AAPMPF and end in FKPAK-stop
T2 sequence (B2UM60 18-780): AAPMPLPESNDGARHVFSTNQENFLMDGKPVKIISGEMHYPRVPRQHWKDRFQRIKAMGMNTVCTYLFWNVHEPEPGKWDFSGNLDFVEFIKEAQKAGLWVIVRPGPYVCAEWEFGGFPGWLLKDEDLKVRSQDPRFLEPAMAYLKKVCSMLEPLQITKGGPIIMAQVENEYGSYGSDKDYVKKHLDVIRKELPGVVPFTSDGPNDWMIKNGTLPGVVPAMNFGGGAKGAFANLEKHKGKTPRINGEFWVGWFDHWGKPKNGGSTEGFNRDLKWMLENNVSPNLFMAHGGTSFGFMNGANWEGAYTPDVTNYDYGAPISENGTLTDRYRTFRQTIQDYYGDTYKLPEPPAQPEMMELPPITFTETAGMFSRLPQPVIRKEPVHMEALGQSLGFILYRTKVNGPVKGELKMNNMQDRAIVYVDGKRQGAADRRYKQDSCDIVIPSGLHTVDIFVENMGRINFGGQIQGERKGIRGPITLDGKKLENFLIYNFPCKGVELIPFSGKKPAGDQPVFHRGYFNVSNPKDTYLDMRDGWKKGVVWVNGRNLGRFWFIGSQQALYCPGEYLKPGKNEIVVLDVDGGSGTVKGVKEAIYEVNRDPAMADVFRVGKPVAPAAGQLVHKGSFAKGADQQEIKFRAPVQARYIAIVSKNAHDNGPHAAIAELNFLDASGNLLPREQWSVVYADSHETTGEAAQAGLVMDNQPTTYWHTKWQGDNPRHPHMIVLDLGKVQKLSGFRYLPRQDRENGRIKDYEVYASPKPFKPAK


Tests used:
Amuc_1686_short = biological target: T1, Amuc_1686_short; assay: photometric 4-nitrophenol release; type: biochemical; settings: 5 mM substrate; 50 mM combined buffer pH 7.5, 37 °C
Amuc_1686 = biological target: T2, Amuc_1686; assay: photometric 4-nitrophenol release; type: biochemical; settings: 5 mM 4-nitrophenyl beta-D-galactopyranoside; 50 mM combined buffer pH 7.5, 37 °C; lipid added in methanol; non-competitive; acyl chains not given
purified protein = substrate: O=[N+]([O-])c1ccc(O[C@@H]2O[C@H](CO)[C@H](O)[C@H](O)[C@H]2O)cc1; assay: purified protein; settings: 50 mM combined buffer pH 7.5, 65 °C

| Molecule | IC50 (Amuc_1686) [µM] | also measured |
| --- | --- | --- |
| O=[N+]([O-])c1ccc(O[C@@H]2O[C@H](CO)[C@H](O)[C@H](O)[C@H]2O)cc1 [para‐nitrophenyl‐β‐D‐galactopyranoside] | – | photometric 4-nitrophenol release (Amuc_1686_short): the shortened variant exhibited a slightly decreased enzymatic activity |
| lysophosphatidic acid [LPA] | 13.6 ± 10.6 | – |
| phosphatidic acid [PA] | 4.3 ± 0.2 | – |
| phosphatidylglycerol [PG] | 1 ± 0.1 | – |
| phosphatidylserine [PS] | 29.3 ± 1.5 | – |
| Amuc_1686 (Akkermansia muciniphila ATCC BAA-835) (protein) AAPMPLPESNDGARHVFSTNQENFLMDGKPVKIISGEMHYPRVPRQHWKDRFQRIKAMGMNTVCTYLFWNVHEPEPGKWDFSGNLDFVEFIKEAQKAGLWVIVRPGPYVCAEWEFGGFPGWLLKDEDLKVRSQDPRFLEPAMAYLKKVCSMLEPLQITKGGPIIMAQVENEYGSYGSDKDYVKKHLDVIRKELPGVVPFTSDGPNDWMIKNGTLPGVVPAMNFGGGAKGAFANLEKHKGKTPRINGEFWVGWFDHWGKPKNGGSTEGFNRDLKWMLENNVSPNLFMAHGGTSFGFMNGANWEGAYTPDVTNYDYGAPISENGTLTDRYRTFRQTIQDYYGDTYKLPEPPAQPEMMELPPITFTETAGMFSRLPQPVIRKEPVHMEALGQSLGFILYRTKVNGPVKGELKMNNMQDRAIVYVDGKRQGAADRRYKQDSCDIVIPSGLHTVDIFVENMGRINFGGQIQGERKGIRGPITLDGKKLENFLIYNFPCKGVELIPFSGKKPAGDQPVFHRGYFNVSNPKDTYLDMRDGWKKGVVWVNGRNLGRFWFIGSQQALYCPGEYLKPGKNEIVVLDVDGGSGTVKGVKEAIYEVNRDPAMADVFRVGKPVAPAAGQLVHKGSFAKGADQQEIKFRAPVQARYIAIVSKNAHDNGPHAAIAELNFLDASGNLLPREQWSVVYADSHETTGEAAQAGLVMDNQPTTYWHTKWQGDNPRHPHMIVLDLGKVQKLSGFRYLPRQDRENGRIKDYEVYASPKPFKPAK | – | Km (purified protein): 0.5 ± 0.3 mM; kcat (purified protein): 530.3 ± 87.1 s⁻¹ |
